Experimental data as given in patent US20220073554A1, “LINCOSAMIDE ANTIBIOTICS AND USES THEREOF” (President and Fellows of Harvard College, priority 2017, published 2022).
≈ marks a conversion by molar mass, not a printed value. Like-named read-outs stand apart in the source and are kept apart here.

Columns and labels:
Format in all cases: cell-based
[1] = test system: S. aureus UNT-120, MP-619, NR522 (USA 600, GISA); experiment: microbe, parasite or virus in culture; settings: Staphylococcus aureus, USA600
[2] = test system: E. faecalis ATCC 29212; experiment: MIC against E. faecalis ATCC 29212; settings: Enterococcus faecalis
[3] = test system: P. aeruginosa ATCC 27853; experiment: MIC against P. aeruginosa ATCC 27853; settings: Pseudomonas aeruginosa, ATCC27853
[4] = test system: E. coli MP-9 ΔTolC; experiment: MIC against E. coli MP-9 ΔTolC; settings: Escherichia coli
[5] = test system: S. aureus UNT-146, MP-620, TP 506 (ermA); experiment: microbe, parasite or virus in culture; settings: Staphylococcus aureus
[6] = test system: S. aureus BAA 977 iErmA; experiment: MIC against S. aureus BAA 977 iErmA; settings: Staphylococcus aureus, BAA977
[7] = test system: S. aureus UNT96, NRS710, MP-618 (USA100, Erythro > 8); experiment: microbe, parasite or virus in culture; settings: Staphylococcus aureus
[8] = test system: E. faecalis UNT-047 VRE; experiment: microbe, parasite or virus in culture; settings: Enterococcus faecalis
[9] = test system: E. coli ATCC 25922; experiment: MIC against E. coli ATCC 25922; settings: Escherichia coli, ATCC25922
[10] = test system: S. pyogenes ATCC 19615; experiment: MIC against S. pyogenes ATCC 19615; settings: Streptococcus pyogenes, ATCC19615
[11] = test system: S. aureus ATCC 29213; experiment: MIC against S. aureus ATCC 29213; settings: Staphylococcus aureus
[12] = test system: S. aureus MP-513 clinical cErm; experiment: MIC against S. aureus MP-513 clinical cErm; settings: Staphylococcus aureus
[13] = test system: S. aureus MP-549 msr(a) USA 300; experiment: MIC against S. aureus MP-549 msr(a) USA 300; settings: Staphylococcus aureus, USA300, S. aureus MP-549 msr(a) USA 300
[14] = test system: K. pneumoniae ATCC 10031; experiment: MIC against K. pneumoniae ATCC 10031; settings: Klebsiella pneumoniae, ATCC10031
[15] = test system: S. aureus MMX 3035 cErmA; experiment: MIC against S. aureus MMX 3035 cErmA; settings: Staphylococcus aureus, MMX3035CERMA
[16] = test system: B. fragilis ATCC 25285; experiment: MIC against B. fragilis ATCC 25285; settings: Bacteroides fragilis, ATCC25285
[17] = test system: P. aeruginosa MMX 3476 Δmex; experiment: MIC against P. aeruginosa MMX 3476 Δmex; settings: Pseudomonas aeruginosa
[18] = test system: S. pneumoniae MMX 3028 cErmB; experiment: MIC against S. pneumoniae MMX 3028 cErmB; settings: Streptococcus pneumoniae, MMX3028CERMB
[19] = test system: E. coli MMX TolC parent strain; experiment: MIC against E. coli MMX TolC parent strain; settings: Escherichia coli
[20] = test system: P. aeruginosa MMX Mex parent strain; experiment: MIC against P. aeruginosa MMX Mex parent strain; settings: Pseudomonas aeruginosa
[21] = test system: E. coli MMX 0121 ΔTolC; experiment: MIC against E. coli MMX 0121 ΔTolC; settings: Escherichia coli
[22] = test system: E. faecalis MMX 847 Macrolide-Resistant; experiment: MIC against E. faecalis MMX 847 Macrolide-Resistant; settings: Enterococcus faecalis
[23] = test system: S. aureus Micromyx USA 300; experiment: MIC against S. aureus Micromyx USA 300; settings: Staphylococcus aureus, USA300
[24] = test system: S. pyogenes MMX 946 Macrolide-Resistant; experiment: MIC against S. pyogenes MMX 946 Macrolide-Resistant; settings: Streptococcus pyogenes
[25] = test system: H. influenzae ATCC 49247; experiment: MIC against H. influenzae ATCC 49247; settings: Haemophilus influenzae, ATCC49247
[26] = test system: C. difficile BAA 1805; experiment: MIC against C. difficile BAA 1805; settings: Clostridioides difficile, BAA1805
[27] = test system: E. coli ATCC 15922; experiment: MIC against E. coli ATCC 15922; settings: Escherichia coli, ATCC15922
[28] = test system: S. pneumoniae MMX 3031 cMefA; experiment: MIC against S. pneumoniae MMX 3031 cMefA; settings: Streptococcus pneumoniae, MMX3031CMEFA
[29] = test system: S. pneumoniae ATCC 49619; experiment: MIC against S. pneumoniae ATCC 49619; settings: Streptococcus pneumoniae, ATCC49619; S. pneumoniae ATCC 49619; read-out: MIC
[30] = test system: S. pneumoniae UNT-039, MP-627, TP1517 (mefA); experiment: MIC against S. pneumoniae UNT-039, MP-627, TP1517 (mefA); settings: Streptococcus pneumoniae
[31] = test system: S. pyogenes UNT-014, MP-625 MacRes; experiment: MIC against S. pyogenes UNT-014, MP-625 MacRes; settings: Streptococcus pyogenes
[32] = S. aureus Micromyx USA 300, read-out: MIC
[33] = ATCC29213, S. aureus ATCC 29213, read-out: MIC
[34] = S. pyogenes ATCC 19615, read-out: MIC

SMILES | MIC ([2]; ATCC29212) [µg/mL] | MIC [3] [µg/mL] | MIC [6] [µg/mL] | MIC [9] [µg/mL] | MIC ([11]; ATCC29213) [µg/mL] | MIC [12] [µg/mL] | MIC [15] [µg/mL] | MIC [16] [µg/mL] | MIC [17] [µg/mL] | MIC [18] [µg/mL] | MIC [19] [µg/mL] | MIC [20] [µg/mL] | MIC [21] [µg/mL] | MIC [22] [µg/mL] | MIC [23] [µg/mL] | MIC [24] [µg/mL] | MIC [23, 32] [µg/mL] | MIC [11, 33] [µg/mL] | MIC [25] [µg/mL] | MIC [10, 34] [µg/mL] | other results
CSC1O[C@H]([C@H](NC(=O)[C@H]2NC[C@@H]3C[C@@H](O)[C@@H](O)CO[C@H]32)[C@H](C)Cl)C(O)[C@@H](O)[C@H]1O (stereo partly shown) [FSA-501076] | > 64 | > 64 | > 64 | > 64 | > 64 | > 64 |  |  |  |  |  |  |  |  |  |  |  |  |  |  | MIC [1]: > 64 µg/mL; MIC [4]: > 64 µg/mL; MIC [5]: > 64 µg/mL; MIC [7]: > 64 µg/mL; MIC [8]: > 64 µg/mL; MIC [10]: > 64 µg/mL; MIC [13]: > 64 µg/mL; MIC [14]: > 64 µg/mL
CSC1O[C@H]([C@H](NC(=O)[C@H]2NC[C@@H]3C=C(c4ccccc4)CCO[C@@H]23)[C@H](C)Cl)C(O)[C@@H](O)[C@H]1O (stereo partly shown) [FSA-507031] | > 32 | > 32 | > 32 | > 32 | > 32 |  | > 32 | > 32 | > 32 | > 32 | > 32 | > 32 | > 32 | > 32 | > 32 | > 32 |  |  |  |  | MIC ([25]; H. influenzae ATCC 49247, read-out: MIC): 8 µg/mL (≈ 15.6 µM); MIC [26]: > 32 µg/mL
CSC1O[C@H]([C@H](NC(=O)[C@H]2NC[C@@H]3C=C(c4ccc(F)cc4)CCO[C@@H]23)[C@H](C)Cl)C(O)[C@@H](O)[C@H]1O (stereo partly shown) [FSA-507052] |  | > 32 | 2 (≈ 3.77 µM) |  |  |  | > 32 | > 32 | > 32 | > 32 | > 32 | > 32 | > 32 | > 32 |  | > 32 | 0.5 (≈ 0.942 µM) | 2 (≈ 3.77 µM) | > 32 |  | MIC ([2]; ATCC29212, read-out: MIC): 1 µg/mL (≈ 1.88 µM); MIC [27]: > 32 µg/mL
C[C@@H](O)[C@@H](NC(=O)[C@H]1NC[C@@H]2CC=CCO[C@H]21)[C@H]1OC(CN=[N+]=[N-])[C@H](O)[C@H](O)C1O (stereo partly shown) [FSA-211064] | > 64 | > 64 | > 64 | > 64 | > 64 |  | > 64 | > 64 | > 64 | > 64 | > 64 | > 64 | > 64 | > 64 | > 64 | > 64 |  |  | > 64 | 4 (≈ 9.36 µM) | 
CSC1O[C@H]([C@H](NC(=O)[C@H]2NC[C@@H]3CC(c4ccccc4)=CCO[C@H]32)[C@H](C)Cl)C(O)[C@@H](O)[C@H]1O (stereo partly shown) [FSA-507056] |  | > 32 | 1 (≈ 1.95 µM) | > 32 |  |  | > 32 | > 32 | > 32 | > 32 | > 32 | > 32 | > 32 | > 32 |  | > 32 | 0.5 (≈ 0.975 µM) | 1 (≈ 1.95 µM) | > 32 |  | MIC ([2]; ATCC29212, read-out: MIC): 2 µg/mL (≈ 3.9 µM)
CSC1O[C@H]([C@H](NC(=O)[C@H]2NC[C@@H]3CC=CCO[C@H]32)[C@H](C)Sc2ccc(-c3cncnc3)cc2)C(O)[C@@H](O)[C@H]1O (stereo partly shown) [FSA-27049] |  | > 64 | 2 (≈ 3.4 µM) |  |  | > 64 | > 64 | > 64 | > 64 |  | > 64 | > 64 | 8 (≈ 13.6 µM) | > 64 |  |  | 1 (≈ 1.7 µM) | 1 (≈ 1.7 µM) |  | ≤ 0.06 | MIC ([18]; S. pneumoniae MMX 3028 cErmB, read-out: MIC): 39 µg/mL (≈ 66.2 µM); MIC [28]: ≤ 0.06 µg/mL; MIC [29]: ≤ 0.06 µg/mL; MIC ([24]; S. pyogenes MMX 946 Macrolide-Resistant (MacRes), read-out: MIC): 2 µg/mL (≈ 3.4 µM); MIC [27]: > 64 µg/mL; MIC ([26]; C. difficile BAA 1805, read-out: MIC): 1 µg/mL (≈ 1.7 µM)
Cc1ccc(S(=O)(=O)OCC2O[C@H]([C@H](NC(=O)[C@H]3NC[C@@H]4CC=CCO[C@H]43)[C@@H](C)O)C(O)[C@@H](O)[C@H]2O)cc1 (stereo partly shown) [FSA-211030] | > 64 | > 64 | > 64 | > 64 | > 64 |  | > 64 | > 64 | > 64 | > 64 | > 64 | > 64 | > 64 | > 64 | > 64 | > 64 |  |  | > 64 | 1 (≈ 1.8 µM) | MIC [26]: > 64 µg/mL
CSC1O[C@H]([C@H](NC(=O)[C@H]2NC[C@@H]3C[C@H]4OC(C)(C)O[C@H]4CO[C@H]32)[C@H](C)Cl)C(O)[C@@H](O)[C@H]1O (stereo partly shown) [FSA-501099] | > 64 | > 64 | > 64 | > 64 | > 64 | > 64 |  |  |  |  |  |  |  |  |  |  |  |  |  |  | MIC [1]: > 64 µg/mL; MIC [30]: 2 µg/mL (≈ 3.91 µM); MIC [31]: 32 µg/mL (≈ 62.6 µM); MIC [4]: > 64 µg/mL; MIC [5]: > 64 µg/mL; MIC [7]: > 64 µg/mL; MIC [8]: > 64 µg/mL; MIC [29]: 8 µg/mL (≈ 15.7 µM); MIC [13]: > 64 µg/mL; MIC [14]: > 64 µg/mL
